# Results from ChEMBL document CHEMBL5550154, “Novel biaryloxazolidinone derivatives with broad-spectrum antibacterial activity, favorable drug-like profiles and in vivo efficacy against linezolid-resistant Staphylococcusaureus” (Eur J Med Chem, 2024).
# Legend:
# [1] = AUC (0 to t) in ICR mouse at 10 mg/kg, IG measured upto 24 hrs by LC-MS analysis; type: ADME, organism-based; settings: in vivo, po
# [2] = Plasma protein binding in mouse incubated for 6 hrs by LC-MS/MS analysis; type: ADME, cell-free; settings: read-out: PPB (converted)
# [3] = Cytotoxicity against human HepG2 cells incubated for 48 hrs by MTT assay; type: toxicity, cell-based
# [4] = Stability in rat plasma assessed as parent compound remaining at 37 degreeC measured upto 60 mins by HPLC analysis; type: ADME, cell-free; settings: read-out: Stability
# [5] = tested on: Staphylococcus aureus; experiment: Antibacterial activity against Staphylococcus aureus ATCC29213 assessed as inhibition of bacterial growth incubated for 16 to 20 hrs by CLSI based broth liquid microdilution method; type: functional; settings: time 16-20 hrs
# [6] = Stability in monkey plasma assessed as parent compound remaining at 25 degreeC measured upto 60 mins by HPLC analysis; type: ADME, cell-free, Macaca mulatta; settings: rhesus monkey, read-out: Stability
# [7] = AUC (0 to t) in ICR mouse at 1 mg/kg, iv measured upto 24 hrs by LC-MS analysis; type: ADME, organism-based; settings: in vivo
# [8] = Aqueous solubility of compound at pH 2 by LC-MS/MS analysis; type: physicochemical; settings: buffer
# [9] = Tmax in Sprague-Dawley rat at 10 mg/kg, IG measured upto 24 hrs by LC-MS analysis; type: ADME, organism-based; settings: in vivo, po
# [10] = Plasma protein binding in rat incubated for 6 hrs by LC-MS/MS analysis; type: ADME, cell-free; settings: read-out: PPB (converted)
# [11] = Elimination half life in Sprague-Dawley rat at 1 mg/kg, iv measured upto 24 hrs by LC-MS analysis; type: ADME, organism-based; settings: in vivo, read-out: beta t1/2 (converted)
# [12] = AUC (0 to t) in Sprague-Dawley rat at 10 mg/kg, IG measured upto 24 hrs by LC-MS analysis; type: ADME, organism-based; settings: in vivo, po
# [13] = biological target: Cytochrome P450 2D6 (Homo sapiens, UniProt P10635); experiment: Inhibition of CYP2D6 in human liver microsomes […] preincubated with compound for 5 mins followed by substrate addition and measured after 120 mins in presence of NADPH by LC-MS/MS analysis; type: ADME, Microsome
# [14] = tested on: Staphylococcus aureus; experiment: Antibacterial activity against methicillin-sensitive Staphylococcus aureus assessed as inhibition of bacterial growth incubated for 16 to 20 hrs by CLSI based broth liquid microdilution method; type: functional; settings: time 16-20 hrs
# [15] = Microsomal stability in human liver microsomes assessed as intrinsic clearance pretreated with compound upto 60 mins followed by NADPH addition and measured after 60 mins by LC/MS analysis; type: ADME, Microsome; settings: time < 120 min, read-out: CLH
# [16] = tested on: Staphylococcus aureus; experiment: Antibacterial activity against methicillin-resistant Staphylococcus aureus assessed as inhibition of bacterial growth incubated for 16 to 20 hrs by CLSI based broth liquid microdilution method; type: functional; settings: time 16-20 hrs
# [17] = Elimination half life in Sprague-Dawley rat at 10 mg/kg, IG measured upto 24 hrs by LC-MS analysis; type: ADME, organism-based; settings: in vivo, po, read-out: beta t1/2 (converted)
# [18] = Clearance in ICR mouse at 1 mg/kg, iv measured upto 24 hrs by LC-MS analysis; type: ADME, organism-based; settings: in vivo
# [19] = Cmax in Sprague-Dawley rat at 10 mg/kg, IG measured upto 24 hrs by LC-MS analysis; type: ADME, organism-based; settings: in vivo, po
# [20] = Volume of distribution at steady state in ICR mouse at 1 mg/kg, iv measured upto 24 hrs by LC-MS analysis; type: ADME, organism-based; settings: in vivo, read-out: Vdss
# [21] = Aqueous solubility of compound at pH 7.4 by LC-MS/MS analysis; type: physicochemical; settings: buffer
# [22] = Half life in ICR mouse at 10 mg/kg, IG measured upto 24 hrs by LC-MS analysis; type: ADME, organism-based; settings: in vivo, po
# [23] = Microsomal stability in dog liver microsomes assessed as intrinsic clearance pretreated with compound upto 60 mins followed by NADPH addition and measured after 60 mins by LC/MS analysis; type: ADME, Canis lupus familiaris, Microsome; settings: liver microsomes, time < 120 min, read-out: CLH
# [24] = Tmax in ICR mouse at 10 mg/kg, IG measured upto 24 hrs by LC-MS analysis; type: ADME, organism-based; settings: in vivo, po
# [25] = Microsomal stability in dog liver microsomes assessed as elimination half life pretreated with compound upto 60 mins followed by NADPH addition and measured after 60 mins by LC/MS analysis; type: ADME, Canis lupus familiaris, Microsome; settings: liver microsomes, time < 120 min, read-out: beta t1/2
# [26] = biological target: T1, Cytochrome P450 1A2 (Homo sapiens, UniProt P05177); experiment: Inhibition of CYP1A2 in human liver microsomes with alpha-naphthoflavone as reference inhibitor preincubated with compound for 5 mins followed by substrate addition and measured after 120 mins in presence of NADPH by LC-MS/MS analysis; type: ADME, Microsome
# T1 sequence (P05177 whole entry): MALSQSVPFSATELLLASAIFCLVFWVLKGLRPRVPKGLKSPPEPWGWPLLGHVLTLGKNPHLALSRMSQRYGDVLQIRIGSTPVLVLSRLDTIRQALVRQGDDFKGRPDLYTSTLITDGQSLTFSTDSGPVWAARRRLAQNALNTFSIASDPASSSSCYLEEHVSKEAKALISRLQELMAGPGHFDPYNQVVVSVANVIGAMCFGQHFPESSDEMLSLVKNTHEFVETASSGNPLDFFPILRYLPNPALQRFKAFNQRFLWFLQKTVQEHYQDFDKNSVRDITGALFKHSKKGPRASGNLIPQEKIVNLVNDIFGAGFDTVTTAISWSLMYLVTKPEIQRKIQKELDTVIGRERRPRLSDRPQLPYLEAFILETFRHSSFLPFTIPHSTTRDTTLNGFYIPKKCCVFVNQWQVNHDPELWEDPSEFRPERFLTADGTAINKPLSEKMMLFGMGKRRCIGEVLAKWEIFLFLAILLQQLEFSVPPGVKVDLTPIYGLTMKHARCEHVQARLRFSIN
# [27] = Microsomal stability in rat liver microsomes assessed as intrinsic clearance pretreated with compound upto 60 mins followed by NADPH addition and measured after 60 mins by LC/MS analysis; type: ADME, Microsome; settings: time < 120 min, read-out: CLH
# [28] = Stability in dog plasma assessed as parent compound remaining at 25 degreeC measured upto 60 mins by HPLC analysis; type: ADME, cell-free, Canis lupus familiaris; settings: read-out: Stability
# [29] = Stability in dog plasma assessed as parent compound remaining at 37 degreeC measured upto 60 mins by HPLC analysis; type: ADME, cell-free, Canis lupus familiaris; settings: read-out: Stability
# [30] = Stability in monkey plasma assessed as parent compound remaining at 37 degreeC measured upto 60 mins by HPLC analysis; type: ADME, cell-free, Macaca mulatta; settings: rhesus monkey, read-out: Stability
# [31] = Plasma protein binding in dog incubated for 6 hrs by LC-MS/MS analysis; type: ADME, cell-free, Canis lupus familiaris; settings: read-out: PPB (converted)
# [32] = tested on: Staphylococcus aureus; experiment: Antibacterial activity against linezolid-resistant Staphylococcus aureus assessed as inhibition of bacterial growth incubated for 16 to 20 hrs by CLSI based broth liquid microdilution method; type: functional; settings: time 16-20 hrs
# [33] = Microsomal stability in monkey liver microsomes assessed as elimination half life pretreated with compound upto 60 mins followed by NADPH addition and measured after 60 mins by LC/MS analysis; type: ADME, Macaca mulatta, Microsome; settings: rhesus monkey, time < 120 min, read-out: beta t1/2
# [34] = Microsomal stability in mouse liver microsomes assessed as elimination half life pretreated with compound upto 60 mins followed by NADPH addition and measured after 60 mins by LC/MS analysis; type: ADME, Microsome; settings: liver microsomes, time < 120 min, read-out: beta t1/2
# [35] = biological target: Cytochrome P450 2C19 (Homo sapiens, UniProt P33261); experiment: Inhibition of CYP2C19 in human liver microsomes […] preincubated with compound for 5 mins followed by substrate addition and measured after 120 mins in presence of NADPH by LC-MS/MS analysis; type: ADME, Microsome
# Cytochrome P450 2C19, sequence (P33261 whole entry): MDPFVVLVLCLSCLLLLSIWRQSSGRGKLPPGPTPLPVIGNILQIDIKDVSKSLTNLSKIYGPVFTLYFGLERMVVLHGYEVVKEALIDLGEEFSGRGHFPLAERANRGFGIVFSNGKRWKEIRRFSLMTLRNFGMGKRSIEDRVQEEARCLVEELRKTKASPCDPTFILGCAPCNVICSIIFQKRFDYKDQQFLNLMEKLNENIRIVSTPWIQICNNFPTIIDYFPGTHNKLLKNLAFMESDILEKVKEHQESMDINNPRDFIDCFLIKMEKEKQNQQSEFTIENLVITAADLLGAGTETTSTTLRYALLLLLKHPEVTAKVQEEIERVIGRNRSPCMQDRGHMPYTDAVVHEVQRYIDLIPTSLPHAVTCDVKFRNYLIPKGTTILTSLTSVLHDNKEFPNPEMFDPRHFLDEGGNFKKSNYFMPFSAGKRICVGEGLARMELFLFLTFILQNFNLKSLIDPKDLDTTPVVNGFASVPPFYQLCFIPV
# Cytochrome P450 2D6, sequence (P10635 whole entry): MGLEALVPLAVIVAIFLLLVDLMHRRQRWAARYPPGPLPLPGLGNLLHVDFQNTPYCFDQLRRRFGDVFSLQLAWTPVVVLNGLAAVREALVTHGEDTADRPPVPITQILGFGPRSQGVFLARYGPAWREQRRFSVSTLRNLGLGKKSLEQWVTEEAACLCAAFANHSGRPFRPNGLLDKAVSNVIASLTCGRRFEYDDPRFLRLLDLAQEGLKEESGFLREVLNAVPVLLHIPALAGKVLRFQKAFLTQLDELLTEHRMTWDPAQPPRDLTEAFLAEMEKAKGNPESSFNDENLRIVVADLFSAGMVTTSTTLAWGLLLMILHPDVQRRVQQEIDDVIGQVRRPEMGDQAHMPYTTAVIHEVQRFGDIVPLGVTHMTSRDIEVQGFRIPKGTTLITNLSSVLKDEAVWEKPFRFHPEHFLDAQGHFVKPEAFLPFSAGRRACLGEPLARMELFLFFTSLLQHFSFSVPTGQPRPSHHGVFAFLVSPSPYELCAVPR
compound,measurement,setting,value
O=C1O[C@@H](CO)CN1c1ccc(-c2ccc(/C=N/N3CCOCC3)nc2)c(F)c1,AUC(0-t) at 24 h,[1],29300 ng·h/mL
same,fraction unbound at 6 h,[2],0.117
same,IC50 at 48 h,[3],> 30 µM
same,remaining at 1 h,[4],103%
same,MIC,[5],0.06 µg/mL
same,remaining at 1 h,[6],113%
same,AUC(0-t) at 24 h,[7],2640 ng·h/mL
same,solubility,[8],52.6 µM
same,Tmax,[9],1.33 h
same,fraction unbound at 6 h,[10],0.041
same,half-life,[11],48 min
same,AUC(0-t) at 24 h,[12],8310 ng·h/mL
same,IC50,[13],> 30 µM
same,MIC,[14],0.06 µg/mL
same,microsomal CLint,[15],12.7 µL/min/mg
same,MIC,[16],0.125 µg/mL
same,half-life,[17],89.4 min
same,clearance,[18],5.9 mL/min/kg
same,Cmax,[19],2320 ng/mL
same,Vd,[20],0.87 L/kg
same,solubility,[21],10.9 µM
same,half-life,[22],171 min
same,microsomal CLint,[23],1.51 µL/min/mg
same,Tmax,[24],2 h
same,half-life,[25],1150 min
same,IC50,[26],> 30 µM
same,microsomal CLint,[27],2.3 µL/min/mg
same,remaining at 1 h,[28],107%
same,remaining at 1 h,[29],115%
same,remaining at 1 h,[30],103%
same,fraction unbound at 6 h,[31],0.169
same,MIC,[32],0.125 µg/mL
same,half-life,[33],467 min
same,half-life,[34],730 min
same,IC50,[35],> 30 µM
